From US20020137929A1, “1 - (3-heterocyclylphenyl) isothiourea, -isourea, -guanidine and -amidine herbicidal agents” (Intellectual Property Department, BASF Aktiengesellschaft, priority 1998, published 2002)

Tests used:
[1] = tested on: SETVI (Foxtail, Green); assay: Postemergence herbicidal evaluation; format: in vivo, Setaria viridis; conditions: postemergence
Procedure, shortened: (§1)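 Visual 0-9 injury score (stand, vigor, malformation, size, chlorosis, appearance vs untreated) taken four to five weeks post-spray, averaged across repeat tests. Test plants about two weeks old; foliar spray of acetone/water (1:1) with 0.5% surfactant delivering ~0.0156-0.500 kg active/ha.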

[2] = tested on: ORYSAT (Rice, Tebonnet); assay: Postemergence herbicidal evaluation; format: in vivo, Oryza sativa, (L.) Tebonnet; conditions: postemergence
Procedure, shortened: as §1

[3] = tested on: ZEAMX (Corn, Field); assay: Postemergence herbicidal evaluation; format: in vivo, Zea mays; conditions: postemergence
Procedure, shortened: as §1

[4] = tested on: ECHCG (Barnyardgrass); assay: Preemergence herbicidal evaluation; format: in vivo, Echinochloa crus-galli; conditions: preemergence, rated 4-5 weeks after treatment, 0-9 scale
Procedure, shortened: (§2)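 Scores use a 0–9 visual scale covering stand, vigor, malformation, size and chlorosis relative to controls, rated four to five weeks after treatment. Before emergence, soil-planted seeds were sprayed with compound in aqueous acetone at roughly 0.0156–0.500 kg/ha and held in the greenhouse.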

[5] = tested on: SETVI (Foxtail, Green); assay: Preemergence herbicidal evaluation; format: in vivo, Setaria viridis; conditions: preemergence, rated 4-5 weeks after treatment, 0-9 scale
Procedure, shortened: as §2

[6] = tested on: TRZAWR (Wheat, Winter, cv Riband); assay: Preemergence herbicidal evaluation; format: in vivo, Triticum aestivum; conditions: preemergence, rated 4-5 weeks after treatment, 0-9 scale
Procedure, shortened: as §2

[7] = tested on: ZEAMX (Corn, Field); assay: Preemergence herbicidal evaluation; format: in vivo, Zea mays; conditions: preemergence, rated 4-5 weeks after treatment, 0-9 scale
Procedure, shortened: as §2

[8] = tested on: ECHORC (Watergrass (Calif.)); assay: Preemergence weed control under flooded paddy conditions; format: in vivo, Echinochloa oryzoides; conditions: rated 3-4 weeks after treatment
Procedure, shortened: (§3)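 Ratings on a 0-9 visual scale cover stand, vigor, malformation, size, chlorosis and overall appearance relative to a control, taken three to four weeks post-treatment. Application was into flood water over freshly sown silt loam at roughly 0.0313 to 0.500 kg/ha.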

[9] = tested on: CYPIR (Rice Flatsedge); assay: as above; format: in vivo, Cyperus iria; conditions: rated 3-4 weeks after treatment
Procedure, shortened: as §3

[10] = tested on: CYPSE (Flatsedge); assay: as above; format: in vivo, Cyperus serotinus; conditions: rated 3-4 weeks after treatment
Procedure, shortened: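 Values are visual 0-9 scores against a control for a preemergence application into paddy flood water at about 0.0313 to 0.500 kg/ha. Greenhouse duration was three to four weeks.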

[11] = tested on: ECHORC (Watergrass (Calif.)); assay: Postemergence weed control under flooded paddy conditions; format: in vivo, Echinochloa oryzoides; conditions: postemergence weeds, rated 3 to 4 weeks after treatment
Procedure, shortened: (§4)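 Flood-water application, about 0.0313–0.500 kg/ha a.i. in aqueous/acetone 50/50 v/v; water depth 1.5–3 cm throughout. Weeds 3–5 cm, rice 1.5–2.5 leaf. Greenhouse; 0–9 visual rating vs control at 3–4 wk.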

[12] = tested on: CYPIR (Rice Flatsedge); assay: as above; format: in vivo, Cyperus iria; conditions: postemergence weeds, rated 3 to 4 weeks after treatment
Procedure, shortened: as §4

[13] = tested on: CYPSE (Flatsedge); assay: as above; format: in vivo, Cyperus serotinus; conditions: postemergence weeds, rated 3 to 4 weeks after treatment
Procedure, shortened: as §4

[14] = tested on: SAGPY (Arrowhead (Pygmaea)); assay: as above; format: in vivo, Sagittaria pygmaea; conditions: postemergence weeds, rated 3 to 4 weeks after treatment
Procedure, shortened: as §4

C=CCN1C(=O)C(CC(=O)OCCF)SC1=Nc1cc(-n2c(=O)cc(C(F)(F)F)n(C)c2=O)c(F)cc1Cl (stereo not shown) [Compound 86, 2-Fluoroethyl 3-allyl-2-{{2-chloro-5-[3,6-dihydro-3-methyl-2,6-dioxo-4-(trifluoromethyl)-1(2H)-pyrimidinyl]-4-fluorophenyl}imino}-4-oxo-5-thiazolidineacetate]
6.0: TRZAWR rating ([6]; 0.5000 kg/ha) | ECHORC herbicidal effect rating ([8]; 0.0625 kg/ha) | Herbicidal rating ECHORC ([11]; Rate 0.0625 kg/ha)
7.0: CYPIR herbicidal effect rating ([9]; 0.0625 kg/ha) | Herbicidal rating CYPIR ([12]; Rate 0.0625 kg/ha)
5.0: ECHORC herbicidal effect rating ([8]; 0.0313 kg/ha) | Herbicidal rating ECHORC ([11]; Rate 0.0313 kg/ha) | Herbicidal rating SAGPY ([14]; Rate 0.0313 kg/ha)
7.5: ORYSAT herbicidal rating ([2]; rate 0.0313 kg/ha) | ORYSAT herbicidal rating ([2]; rate 0.0625 kg/ha) | ZEAMX herbicidal rating ([3]; rate 0.0156 kg/ha)
4.0: ECHCG rating ([4]; 0.5000 kg/ha) | SETVI rating ([5]; 0.0625 kg/ha) | ZEAMX rating ([7]; 0.2500 kg/ha)
8.5: ORYSAT herbicidal rating ([2]; rate 0.1250 kg/ha) | ZEAMX herbicidal rating ([3]; rate 0.0625 kg/ha)
0.0: ECHCG rating ([4]; 0.0156 kg/ha) | ECHCG rating ([4]; 0.0313 kg/ha) | ECHCG rating ([4]; 0.0625 kg/ha) | ECHCG rating ([4]; 0.1250 kg/ha) | ECHCG rating ([4]; 0.2500 kg/ha) | SETVI rating ([5]; 0.0156 kg/ha) | SETVI rating ([5]; 0.0313 kg/ha) | TRZAWR rating ([6]; 0.0156 kg/ha) | TRZAWR rating ([6]; 0.0313 kg/ha) | TRZAWR rating ([6]; 0.0625 kg/ha) | TRZAWR rating ([6]; 0.1250 kg/ha) | ZEAMX rating ([7]; 0.0156 kg/ha) | ZEAMX rating ([7]; 0.0313 kg/ha) | ZEAMX rating ([7]; 0.0625 kg/ha) | ZEAMX rating ([7]; 0.1250 kg/ha) | CYPSE herbicidal effect rating ([10]; 0.0313 kg/ha) | CYPSE herbicidal effect rating ([10]; 0.0625 kg/ha) | Herbicidal rating CYPSE ([13]; Rate 0.0313 kg/ha) | Herbicidal rating CYPSE ([13]; Rate 0.0625 kg/ha)
2.0: TRZAWR rating ([6]; 0.2500 kg/ha)
3.0: ORYSAT herbicidal rating ([2]; rate 0.0156 kg/ha) | CYPIR herbicidal effect rating ([9]; 0.0313 kg/ha) | CYPSE herbicidal effect rating ([10]; 0.1250 kg/ha) | Herbicidal rating CYPIR ([12]; Rate 0.0313 kg/ha) | Herbicidal rating CYPSE ([13]; Rate 0.1250 kg/ha)
9.0: SETVI herbicidal rating ([1]; rate 0.0313 kg/ha) | SETVI herbicidal rating ([1]; rate 0.0625 kg/ha) | SETVI herbicidal rating ([1]; rate 0.1250 kg/ha) | ZEAMX herbicidal rating ([3]; rate 0.1250 kg/ha) | SETVI rating ([5]; 0.2500 kg/ha) | SETVI rating ([5]; 0.5000 kg/ha) | ZEAMX rating ([7]; 0.5000 kg/ha) | ECHORC herbicidal effect rating ([8]; 0.1250 kg/ha) | ECHORC herbicidal effect rating ([8]; 0.2500 kg/ha) | CYPIR herbicidal effect rating ([9]; 0.2500 kg/ha) | CYPSE herbicidal effect rating ([10]; 0.2500 kg/ha) | Herbicidal rating ECHORC ([11]; Rate 0.1250 kg/ha) | Herbicidal rating ECHORC ([11]; Rate 0.2500 kg/ha) | Herbicidal rating CYPIR ([12]; Rate 0.2500 kg/ha) | Herbicidal rating CYPSE ([13]; Rate 0.2500 kg/ha) | Herbicidal rating SAGPY ([14]; Rate 0.0625 kg/ha) | Herbicidal rating SAGPY ([14]; Rate 0.1250 kg/ha) | Herbicidal rating SAGPY ([14]; Rate 0.2500 kg/ha)
8.0: SETVI herbicidal rating ([1]; rate 0.0156 kg/ha) | ZEAMX herbicidal rating ([3]; rate 0.0313 kg/ha) | SETVI rating ([5]; 0.1250 kg/ha) | CYPIR herbicidal effect rating ([9]; 0.1250 kg/ha) | Herbicidal rating CYPIR ([12]; Rate 0.1250 kg/ha)
